Values quoted from earlier work in patent publication US20050180917A1, “Delivery of neutron capture elements for neutron capture therapy” (priority 2001, published 2005).

Tests used:
[1] = review of prior art
[2] = in vivo

Molecule	toxicity [1]	Absolute tumour concentration [2] [µg/g]
N[C@@H](Cc1ccc(B(O)O)cc1)C(=O)O [BPA, 4-dihydroxyborylphenylalanine]	low toxicity	16.5
sodium mercaptoundecahydrododecaborate [BSH]	low toxicity	6.9
